Reference: ChEMBL document CHEMBL1136405, “Acyclic N-(azacycloalkyl)bisindolylmaleimides: isozyme selective inhibitors of PKCbeta” (Bioorg Med Chem Lett, 2003)

How the values were obtained:
[1] = target: T1, Protein kinase C epsilon type (Homo sapiens, UniProt Q02156); assay: Inhibition of Protein kinase C epsilon
T1 sequence (Q02156 whole entry): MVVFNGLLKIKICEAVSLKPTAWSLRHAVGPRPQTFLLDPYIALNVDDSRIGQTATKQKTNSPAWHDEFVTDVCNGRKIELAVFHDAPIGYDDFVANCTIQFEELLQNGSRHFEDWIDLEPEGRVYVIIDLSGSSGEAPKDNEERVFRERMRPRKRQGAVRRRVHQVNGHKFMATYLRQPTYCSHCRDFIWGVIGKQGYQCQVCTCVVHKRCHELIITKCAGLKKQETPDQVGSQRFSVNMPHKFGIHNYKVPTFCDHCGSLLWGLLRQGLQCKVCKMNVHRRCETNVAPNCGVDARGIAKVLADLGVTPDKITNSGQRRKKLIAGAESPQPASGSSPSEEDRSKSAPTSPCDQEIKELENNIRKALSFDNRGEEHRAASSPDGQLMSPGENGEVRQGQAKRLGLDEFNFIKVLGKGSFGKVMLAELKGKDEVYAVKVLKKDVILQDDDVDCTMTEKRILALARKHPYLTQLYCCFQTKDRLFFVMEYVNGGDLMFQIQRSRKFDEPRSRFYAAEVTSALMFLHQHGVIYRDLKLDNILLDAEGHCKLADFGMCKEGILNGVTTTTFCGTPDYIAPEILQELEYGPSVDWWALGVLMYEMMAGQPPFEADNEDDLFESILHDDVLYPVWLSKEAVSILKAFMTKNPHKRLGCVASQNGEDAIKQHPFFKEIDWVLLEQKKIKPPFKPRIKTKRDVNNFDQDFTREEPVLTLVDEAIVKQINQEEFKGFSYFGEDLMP

[2] = target: Protein kinase C (PKC); assay: Inhibition of purified rat brain protein kinase C (RB-PKC)
[3] = target: T2, Protein kinase C beta type (Homo sapiens, UniProt P05771); assay: Inhibition of Protein kinase C beta 2
[4] = Inhibition of purified rat brain casein kinase II
[5] = target: Protein kinase C alpha type (Homo sapiens, UniProt P17252); assay: Inhibition of Protein kinase C alpha
[6] = target: T3, Protein kinase C zeta type (Homo sapiens, UniProt Q05513); assay: Inhibition of Protein kinase C zeta
T3 sequence (Q05513 whole entry): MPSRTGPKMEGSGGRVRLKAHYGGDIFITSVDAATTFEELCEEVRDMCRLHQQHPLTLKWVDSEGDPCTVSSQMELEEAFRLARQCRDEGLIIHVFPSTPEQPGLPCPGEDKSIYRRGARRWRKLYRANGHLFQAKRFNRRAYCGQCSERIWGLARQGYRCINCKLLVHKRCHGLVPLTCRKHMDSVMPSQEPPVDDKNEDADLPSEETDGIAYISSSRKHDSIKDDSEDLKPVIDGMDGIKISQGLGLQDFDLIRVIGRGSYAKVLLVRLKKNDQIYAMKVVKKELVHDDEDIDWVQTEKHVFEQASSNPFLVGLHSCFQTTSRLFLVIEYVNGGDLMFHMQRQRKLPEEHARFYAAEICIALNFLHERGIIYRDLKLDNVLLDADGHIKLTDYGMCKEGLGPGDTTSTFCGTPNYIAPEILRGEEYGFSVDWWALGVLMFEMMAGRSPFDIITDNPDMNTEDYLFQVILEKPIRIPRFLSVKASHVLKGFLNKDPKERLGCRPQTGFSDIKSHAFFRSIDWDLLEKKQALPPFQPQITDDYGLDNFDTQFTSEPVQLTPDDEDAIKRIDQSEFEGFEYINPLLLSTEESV

[7] = target: Protein kinase C gamma type (Homo sapiens, UniProt P05129); assay: Inhibition of Protein kinase C gamma
[8] = target: Protein kinase C eta type (Homo sapiens, UniProt P24723); assay: Inhibition of Protein kinase C eta
[9] = Inhibition of cAMP dependent protein kinase catalytic subunit of bovine heart; set-up: species or system Bos taurus
[10] = target: T2, Protein kinase C beta type; assay: Inhibition of Protein kinase C beta 1
[11] = target: Protein kinase C delta type (Homo sapiens, UniProt Q05655); assay: Inhibition of Protein kinase C delta
[12] = target: CaM kinase II (Homo sapiens, UniProt Q13557+Q13555+Q13554+Q9UQM7); assay: Inhibition of purified mammalian brain [Ca(2+)]/Calmodulin dependent kinase
[13] = target: Proto-oncogene tyrosine-protein kinase Src (Homo sapiens, UniProt P12931); assay: Inhibition of Src protein tyrosine kinase
Chain of Proto-oncogene tyrosine-protein kinase Src (P12931 2-536 limits assumed): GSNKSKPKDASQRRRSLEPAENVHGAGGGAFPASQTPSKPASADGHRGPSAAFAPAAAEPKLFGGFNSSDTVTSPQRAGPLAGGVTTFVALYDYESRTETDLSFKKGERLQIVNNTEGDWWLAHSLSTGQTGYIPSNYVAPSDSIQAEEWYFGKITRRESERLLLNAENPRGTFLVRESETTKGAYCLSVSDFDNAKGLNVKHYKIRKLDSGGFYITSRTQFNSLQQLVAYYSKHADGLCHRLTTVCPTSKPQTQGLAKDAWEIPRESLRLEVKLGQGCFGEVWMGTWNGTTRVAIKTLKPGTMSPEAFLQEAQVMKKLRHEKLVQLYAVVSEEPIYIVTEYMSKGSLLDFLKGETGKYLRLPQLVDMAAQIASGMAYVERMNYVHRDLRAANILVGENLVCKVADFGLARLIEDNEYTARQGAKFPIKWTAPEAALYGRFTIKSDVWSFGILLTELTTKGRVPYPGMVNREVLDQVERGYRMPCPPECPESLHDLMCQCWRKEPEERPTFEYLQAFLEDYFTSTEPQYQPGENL

T2 sequence (P05771 whole entry): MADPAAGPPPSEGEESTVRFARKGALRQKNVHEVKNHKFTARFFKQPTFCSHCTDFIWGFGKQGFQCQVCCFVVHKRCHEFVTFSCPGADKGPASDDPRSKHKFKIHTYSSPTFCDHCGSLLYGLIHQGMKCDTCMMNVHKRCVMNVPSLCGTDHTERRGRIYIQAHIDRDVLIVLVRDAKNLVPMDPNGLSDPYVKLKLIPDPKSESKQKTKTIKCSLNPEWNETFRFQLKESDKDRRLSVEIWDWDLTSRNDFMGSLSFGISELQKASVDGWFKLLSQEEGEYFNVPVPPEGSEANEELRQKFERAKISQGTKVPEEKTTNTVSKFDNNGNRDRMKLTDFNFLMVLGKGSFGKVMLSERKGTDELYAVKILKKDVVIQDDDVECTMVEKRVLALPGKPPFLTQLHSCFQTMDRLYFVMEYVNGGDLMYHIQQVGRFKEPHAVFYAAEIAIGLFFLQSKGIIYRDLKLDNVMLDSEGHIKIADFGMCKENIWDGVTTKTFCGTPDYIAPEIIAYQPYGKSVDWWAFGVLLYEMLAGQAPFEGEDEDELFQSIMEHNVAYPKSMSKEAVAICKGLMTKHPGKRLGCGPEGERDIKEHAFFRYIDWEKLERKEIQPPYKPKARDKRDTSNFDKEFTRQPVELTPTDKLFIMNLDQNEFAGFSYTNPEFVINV
Chain of Protein kinase C delta type (Q05655 whole entry): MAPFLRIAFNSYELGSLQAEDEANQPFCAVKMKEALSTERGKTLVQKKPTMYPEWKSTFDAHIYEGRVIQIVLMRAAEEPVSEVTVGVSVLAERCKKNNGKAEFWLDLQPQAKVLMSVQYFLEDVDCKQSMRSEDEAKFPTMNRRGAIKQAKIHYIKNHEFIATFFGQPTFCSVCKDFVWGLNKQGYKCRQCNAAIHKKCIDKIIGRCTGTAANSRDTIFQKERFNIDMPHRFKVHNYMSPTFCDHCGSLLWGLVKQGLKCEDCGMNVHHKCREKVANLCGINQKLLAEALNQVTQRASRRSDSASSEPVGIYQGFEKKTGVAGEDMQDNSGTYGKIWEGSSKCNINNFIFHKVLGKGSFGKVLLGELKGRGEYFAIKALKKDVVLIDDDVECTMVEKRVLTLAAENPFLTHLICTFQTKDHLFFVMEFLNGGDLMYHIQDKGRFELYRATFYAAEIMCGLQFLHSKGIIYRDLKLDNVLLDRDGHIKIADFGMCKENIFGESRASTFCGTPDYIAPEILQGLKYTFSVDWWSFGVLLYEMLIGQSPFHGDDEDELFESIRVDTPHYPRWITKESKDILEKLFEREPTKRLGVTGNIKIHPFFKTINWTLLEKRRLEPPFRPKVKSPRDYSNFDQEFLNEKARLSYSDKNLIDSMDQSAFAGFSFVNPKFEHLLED
Chain of Protein kinase C eta type (P24723 whole entry): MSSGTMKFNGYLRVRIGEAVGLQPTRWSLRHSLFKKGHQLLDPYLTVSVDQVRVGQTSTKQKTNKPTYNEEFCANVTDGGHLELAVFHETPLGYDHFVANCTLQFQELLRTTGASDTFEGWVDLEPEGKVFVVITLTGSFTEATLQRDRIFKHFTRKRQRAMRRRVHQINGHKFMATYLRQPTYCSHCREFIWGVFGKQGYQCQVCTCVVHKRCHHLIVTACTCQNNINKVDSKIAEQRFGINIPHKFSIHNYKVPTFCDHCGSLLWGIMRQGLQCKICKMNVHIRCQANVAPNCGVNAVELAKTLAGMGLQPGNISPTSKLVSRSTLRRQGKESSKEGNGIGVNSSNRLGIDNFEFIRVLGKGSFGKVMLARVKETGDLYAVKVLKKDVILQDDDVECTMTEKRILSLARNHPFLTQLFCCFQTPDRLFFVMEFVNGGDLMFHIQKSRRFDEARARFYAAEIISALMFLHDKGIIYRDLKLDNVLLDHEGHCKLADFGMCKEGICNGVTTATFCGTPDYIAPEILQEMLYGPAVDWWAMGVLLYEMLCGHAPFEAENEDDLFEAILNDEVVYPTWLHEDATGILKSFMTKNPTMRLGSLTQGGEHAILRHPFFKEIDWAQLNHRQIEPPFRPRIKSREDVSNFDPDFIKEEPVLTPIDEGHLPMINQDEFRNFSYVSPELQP

Structure (SMILES) | IC50 [1] | IC50 [2] | IC50 [3] | IC50 [4] | IC50 [5] | IC50 [6] | IC50 [7] | IC50 [8] | IC50 [9] | IC50 [10] | IC50 [11] | IC50 [13] | IC50 [12]
Cn1cc(C2=C(c3cn(C4CCN(Cc5ccccc5)C4)c4ccccc34)C(=O)NC2=O)c2ccccc21 (stereo unspecified) | 9.4 µM | 2.8 µM | 0.024 µM | > 100 µM | 3.8 µM | > 100 µM | 3.5 µM | 0.042 µM | > 100 µM | 0.022 µM | 4.2 µM |  | 
Cn1cc(C2=C(c3cn(C4CCN(Cc5ccccc5)CC4)c4ccccc34)C(=O)NC2=O)c2ccccc21 |  | 4 µM |  | > 40 µM |  | > 100 µM |  |  | > 100 µM |  |  | > 100 µM | > 40 µM
CCN1CCC(n2cc(C3=C(c4cn(C)c5ccccc45)C(=O)NC3=O)c3ccccc32)CC1 |  |  |  | > 100 µM |  |  |  |  | 8 µM |  |  | 11 µM | 
Cn1cc(C2=C(c3cn(C4CCN(CC5CC5)CC4)c4ccccc34)C(=O)NC2=O)c2ccccc21 |  | 0.3 µM |  | > 100 µM |  |  |  |  | > 100 µM |  |  | 68 µM | 
Cn1cc(C2=C(c3cn(C4CCNCC4)c4ccccc34)C(=O)NC2=O)c2ccccc21 |  |  |  | > 100 µM |  |  |  |  | 1 µM |  |  |  | 
Cn1cc(C2=C(c3cn(C4CCN(Cc5ccccn5)CC4)c4ccccc34)C(=O)NC2=O)c2ccccc21 [ENZASTAURIN] |  | 0.7 µM |  | > 100 µM |  |  |  |  | > 100 µM |  |  |  | 

Now from value to compound, other results behind:

IC50 [1] | IC50 [2] | IC50 [3] | IC50 [4] | IC50 [5] | IC50 [6] | IC50 [7] | IC50 [8] | IC50 [9] | IC50 [10] | IC50 [11] | IC50 [13] | Structure (SMILES) | IC50 [12]
6 µM |  | 0.08 µM |  | 6 µM | > 100 µM | 5 µM | 8 µM |  | 0.2 µM | 7 µM |  | Cn1cc(C2=C(c3cn(C4CCN(C(=O)OC(C)(C)C)CC4)c4ccccc34)C(=O)NC2=O)c2ccccc21 | 
 | 0.25 µM |  | > 100 µM |  |  |  |  | > 100 µM |  |  |  | CC(C)N1CCC(n2cc(C3=C(c4cn(C)c5ccccc45)C(=O)NC3=O)c3ccccc32)CC1 | 
 |  |  | > 100 µM |  |  |  |  | > 100 µM |  |  |  | CN(C)C[C@@H]1CCn2cc(c3ccccc32)C2=C(C(=O)NC2=O)c2cn(c3ccccc23)CCO1 | 
 | 0.2 µM |  | 91 µM |  |  |  |  | 4 µM |  |  | 83 µM | CN1CCC(n2cc(C3=C(c4c[nH]c5ccccc45)C(=O)NC3=O)c3ccccc32)CC1 | 3 µM
 | 0.2 µM |  | > 100 µM |  |  |  |  | 7 µM |  |  | > 100 µM | CN1CCC(n2cc(C3=C(c4cn(C)c5ccccc45)C(=O)NC3=O)c3ccccc32)CC1 | 
